Assay results taken from PMC5062169, “Structural basis for ligand recognition by a Cache chemosensory domain that mediates carboxylate sensing in Pseudomonas syringae” (Scientific Reports, 2016).
pKd: −log10 of the molar value. Peptide text beside a SMILES is read from it.

Molecular target: T1, PscD (PscD-SD, Cache sensor domain of chemoreceptor PscD) (Pseudomonas syringae, UniProt A0ABY1U976)
T1 construct: gene CFBP3846_03581; sensor domain, Gln31-Trp188, N-terminal His6 tag
T1 sequence (A0ABY1U976 31-188): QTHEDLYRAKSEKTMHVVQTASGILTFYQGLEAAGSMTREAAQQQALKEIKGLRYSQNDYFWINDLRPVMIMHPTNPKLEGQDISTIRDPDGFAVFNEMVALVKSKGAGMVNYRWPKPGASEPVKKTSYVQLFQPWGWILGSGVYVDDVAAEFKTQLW
Assay: not given
Conditions: Biolog plate compound, exact concentration unknown; binder
From the text: (§1) We used high-throughput fluorescence thermal shift (FTS) assays (as described previously[16]) to screen for potential ligands of PscD-SD. FTS assays are based on the principle that ligands stabilise proteins upon binding, causing an increase in the melting temperature of the protein[22][23]. Binding can therefore be rapidly screened by measuring the difference in the temperature midpoint of unfolding (ΔTm) of a protein in the presence and absence of potential ligands. In our FTS assays, the Tm was measured by monitoring an increase in fluorescence of a dye with affinity for hydrophobic parts of the protein (i.e. SYPRO Orange), which are exposed as the protein unfolds. We screened the recombinant PscD-SD protein in FTS assays against the compounds in Biolog Phenotype Microarray (PM) plates 1 and 2 (Supplementary Tables 1 and 2). Each plate contains 95 different compounds (e.g., organic acids, sugars) and a water (no ligand) control. For use in FTS assays, the compounds were resuspended directly in water, thus generating a library of biologically relevant potential ligands. […] Fluorescent thermal shift (FTS) assays were conducted as reported previously. PscD-SD was screened for potential ligands against Biolog Phenotype Microarray (PM) plates 1 and 2 (Biolog, Hayward, CA, USA). For initial qualitative, high-throughput screening, ligands were prepared by dissolving Biolog PM compounds in 50 μL of water (each) to obtain a final concentration of approximately 10–20 mM (the exact concentrations vary from well-to-well). Screens were set up in Lightcycler 480 multiwell plates (Roche Diagnostics, Auckland, NZ) with 20 μM protein, a 5x concentration of SYPRO orange (Life Technologies, Carlsbad, CA, USA) and 5 μL of the test compound (i.e. resuspended Biolog ligands) added to each well. The plate was covered with Lightcycler 480 sealing film (Roche Diagnostics) and fluorescence signal was monitored as the temperature was increased from 20 °C to 80 °C at a rate of 1.2 °C.min^−1 in a Lightcycler 480 (Roche Diagnostics). Initial hits were further tested using known concentrations (0, 1, 2, 5 and 10 mM) of each potential ligand to confirm binding. The ligands were prepared as 10x stocks, 2 μL were added to each well, and the experiments were conducted as described above. The first derivative values (−dF/dt) from the raw fluorescence data were used to determine the melting temperature (Tm). Three biological replicates (from independently cultured and purified batches of protein) were performed for each plate screened.

SMILES	Δ Tm [°C]
N[C@@H](CCC(=O)O)C(=O)O [L-glutamic acid]	0.15 ±0.05
CCC(O)C(=O)O (stereo not drawn) [α-Hydroxy Butyric Acid]	0.17 ± 0.05
O=C(O)CC(CC(=O)O)C(=O)O [Tricarballylic Acid]	-0.03 ± 0.05
O=C(O)Cc1ccc(O)cc1 [p-Hydroxy Phenyl Acetic Acid]	0.15 ± 0.04
OC[C@@H](O)[C@@H](O)[C@H](O)[C@@H](O)CO [D-Sorbitol]	0.05 ± 0.07
OC[C@H]1O[C@@](CO)(O[C@H]2O[C@H](CO)[C@@H](O)[C@H](O)[C@H]2O)[C@@H](O)[C@@H]1O [Sucrose]	0.17 ± 0.05
CC(O)CO (stereo not drawn) [1,2-Propanediol]	0.12 ± 0.05
OC[C@@H](O)[C@@H](O)[C@H](O)[C@H](O)CO [D-Mannitol]	0.17 ±0.05
NCC(=O)N[C@@H](CCC(=O)O)C(=O)O [Glycyl-L-Glutamic Acid] (H-Gly-Glu-OH)	0.00 ± 0.00
OC[C@H]1O[C@@H](O[C@@H]2[C@@H](CO)OC(O)(CO)[C@H]2O)[C@H](O)[C@@H](O)[C@H]1O (mixture of isomers) [Lactulose]	0.20 ± 0.03
NCCc1ccc(O)cc1 [Tyramine]	0.12 ± 0.03
O=C(O)[C@@H](O)[C@H](O)[C@H](O)[C@@H](O)C(=O)O [Mucic Acid]	0.07 ± 0.04
O=C(O)CC(Br)C(=O)O (stereo not drawn) [Bromo Succinic Acid]	0.05 ± 0.10
O=P(O)(O)O[C@H]1O[C@H](CO)[C@@H](O)[C@H](O)[C@H]1O [D-Glucose-1-Phosphate]	0.10 ± 0.05
C[C@@H](O)[C@H](N)C(=O)O [L-Threonine]	0.12 ± 0.05
N[C@@H](CO)C(=O)O [L-Serine]	0.10 ± 0.05
C[C@H](N)C(=O)O [L-Alanine]	0.10 ± 0.03
OC[C@H]1OC(O)[C@@H](O)[C@@H](O)[C@@H]1O (stereo partly drawn) [D-Mannose]	0.17 ± 0.05
O=C(CO)[C@@H](O)[C@H](O)[C@H](O)CO [D-Fructose]	0.17 ± 0.05
C[C@H](O)C(=O)O [L-Lactic Acid]	0.12 ±0.03
O=CO [Formic Acid]	0.20 ±0.03
COC(=O)C(C)=O [Methyl Pyruvate]	0.48 ± 0.13

SMILES	Δ Tm [°C]
O=C[C@H](O)[C@@H](O)[C@@H](O)[C@H](O)CO [D-Galactose]	0.17 ± 0.02
C[C@H](N)C(=O)NCC(=O)O [L-Alanyl-Glycine] (H-Ala-Gly-OH)	0.07 ± 0.08
O=C(O)Cc1cccc(O)c1 [m-Hydroxy Phenyl Acetic Acid]	0.10 ± 0.05
COC(=O)CCC(=O)O [Mono Methyl Succinate]	0.12 ± 0.03
Cc1cn([C@H]2C[C@H](O)[C@@H](CO)O2)c(=O)[nH]c1=O [Thymidine]	0.15 ± 0.05
O[C@@H]1[C@@H](O)[C@@H](O)CO[C@H]1O [L-Arabinose]	0.05 ± 0.07
CC(=O)CC(=O)O [Acetoacetic Acid]	0.63 ± 0.05
O=C(O)[C@@H]1CCCN1 [L-Proline]	0.07 ± 0.04
OC[C@H]1O[C@@H](O[C@H]2[C@H](O)[C@@H](O)[C@@H](O)O[C@@H]2CO)[C@H](O)[C@@H](O)[C@H]1O [α-D-Lactose]	0.12 ± 0.03
C[C@H](O)[C@@H](O)[C@@H](O)[C@H](O)C=O [L-Fucose]	0.12 ± 0.05
OCC(O)CO [Glycerol]	0.10 ± 0.05
N[C@@H](CC(=O)O)C(=O)O [L-Aspartic Acid]	0.17 ± 0.05
CC(=O)N[C@@H]1[C@@H](O)[C@H](O)[C@@H](CO)O[C@@H]1O [N-Acetyl-D-Glucosamine]	0.10 ± 0.05
CC(=O)N[C@H]1[C@@H](O)[C@H](O)[C@@H](CO)O[C@H]1O [N-Acetyl-β-D-Mannosamine]	0.07 ± 0.04
NCC(=O)N[C@@H](CC(=O)O)C(=O)O [Glycyl-L-Aspartic Acid] (H-Gly-Asp-OH)	0.00 ± 0.00
O=C(O)CO [glycolate]	1.13 ± 0.00
NC(=O)CC[C@H](N)C(=O)O [L-Glutamine]	0.00 ± 0.00
O=C(O)CCC(=O)O [Succinic Acid]	0.10 ± 0.03
OC[C@H]1O[C@H](O)[C@H](O)[C@@H](O)[C@@H]1O [α-D-Glucose]	0.12 ± 0.03
NCCc1ccccc1 [Phenylethyl-amine]	0.17 ± 0.05
NC(=O)[C@H]1O[C@@H](O)[C@H](O)[C@@H](O)[C@@H]1O [Glucuronamide]	0.17 ± 0.06
O[C@@H]1[C@H](O)[C@H](O)CO[C@H]1O [D-Ribose]	0.12 ±0.05

SMILES	Δ Tm [°C]
OC[C@H]1O[C@H](O[C@H]2[C@H](O)[C@@H](O)[C@H](O)O[C@@H]2CO)[C@H](O)[C@@H](O)[C@@H]1O [Maltose]	0.20 ± 0.03
O=C(O)C[C@@H](O)C(=O)O [D-Malic Acid]	0.17 ± 0.05
OC[C@@H](O)[C@@H](O)[C@@H](O)CO [Adonitol]	0.12 ± 0.03
N[C@@H](C(=O)O)[C@@H](O)[C@H](O)[C@H](O)CO [D-Glucosaminic Acid]	0.10 ± 0.05
O=C(O)CCC(=O)C(=O)O [α-Keto-Glutaric Acid]	0.17 ± 0.02
C[C@@H](N)C(=O)O [D-Alanine]	0.12 ± 0.03
O=C(O)[C@H](O)[C@@H](O)[C@H](O)[C@H](O)CO [D-Gluconic Acid]	0.17 ± 0.02
CC(=O)C(=O)O [pyruvate]	1.01 ± 0.03
CCC(=O)O [propionate]	2.66 ± 0.11
CCC(=O)C(=O)O [α-Keto-Butyric Acid]	0.17 ± 0.05
NCCO [2-Aminoethanol]	0.15 ± 0.05
O=C[C@H](O)[C@H](O)[C@@H](O)CO [L-Lyxose]	0.28 ± 0.05
NCC(=O)N1CCC[C@H]1C(=O)O [Glycyl-L-Proline] (H-Gly-Pro-OH)	0.00 ± 0.00
O=c1ccn([C@@H]2O[C@H](CO)[C@@H](O)[C@H]2O)c(=O)[nH]1 [Uridine]	0.15 ± 0.05
Nc1ncnc2c1ncn2[C@H]1C[C@H](O)[C@@H](CO)O1 [2-Deoxy-Adenosine]	0.17 ± 0.05
NC(=O)C[C@H](N)C(=O)O [L-Asparagine]	0.00 ± 0.00
Nc1ncnc2c1ncn2[C@@H]1O[C@H](CO)[C@@H](O)[C@H]1O [Adenosine]	0.15 ± 0.05
N[C@H](CO)C(=O)O [D-Serine]	0.00 ± 0.00
O=c1[nH]cnc2c1ncn2[C@@H]1O[C@H](CO)[C@@H](O)[C@H]1O [Inosine]	0.15 ± 0.05
CO[C@@H]1O[C@H](CO)[C@@H](O)[C@H](O)[C@H]1O [β-Methyl-D-Glucoside]	0.07 ± 0.04

Molecular target: T2, PscD (PscD-SD, Cache sensor domain of chemoreceptor PscD) (Pseudomonas syringae, UniProt A0ABY1U976)
T2 construct: gene CFBP3846_03581; sensor domain, Gln31-Trp188, N-terminal His6 tag
Assay: ITC; X-ray crystal structure (propionate soak); thermal shift
Type: binding
Conditions: not given

SMILES	pKd
CCC(=O)O [propionate]	4.00

Molecular target: T2, PscD (PscD-SD, Cache sensor domain of chemoreceptor PscD)
Assay: ITC; thermal shift
Type: binding
Conditions: not given

SMILES	pKd
O=C(O)CO [glycolate]	4.64

Same assay, conditions: read-out: Kd

SMILES	pKd
CC(=O)O [acetate]	4.51
CC(=O)C(=O)O [pyruvate]	3.45

Molecular target: T1, PscD (PscD-SD, Cache sensor domain of chemoreceptor PscD)
Assay: not given
Parameters: fluorescence thermal shift (SYPRO Orange) screen of Biolog PM1/PM2 compounds, delta Tm
Conditions: Biolog plate compound, exact concentration unknown; binder
Remark: another data set of the same source
From the text: as §1

SMILES	Δ Tm [°C]
O=C(CO)[C@@H](O)[C@H](O)[C@@H](O)C(=O)O [5-keto-D-Gluconic Acid]	0.10 ± 0.02
NCC(O)c1ccc(O)cc1 (racemic) [D,L-Octopamine]	0.03 ± 0.03
O=C(CO)CO [Dihydroxyacetone]	0.35 ± 0.14
CO[C@H]1O[C@H](CO)[C@@H](O)[C@H](O)[C@@H]1O [α-Methyl-D-Mannoside]	0.05 ± 0.03
